In patent US8568754B2, “Low-emission formaldehyde donor preparations and use thereof” (Air Liquide Sante (International), priority 2002, dated 2013):

Conditions: not told

CC1CN(CN2COC(C)C2)CO1 (centres unmarked) [No. 1, N,N′-methylenebis(5-methyloxazolidine)]
efflux time from a DIN beaker 4 mm: 22 s | efflux time from the DIN beaker 6 mm: 6 s
